Test results from US4465676A, “16α Halogen substituted 3,17β-dihydroxy steroidal estrogens” (priority 1980, dated 1984).

Columns and labels:
[1] = test system: testosterone-estradiol binding globulin; test: Binding to testosterone-estradiol binding globulin of human plasma
Text: This protein contaminates most human tissue preparations, complicating the detection of sex steroid receptors.

[2] = target: T1, estrogen receptors (rat uterine cytosol) (Rattus norvegicus, UniProt P06211); test: Kinetic experiments and Scatchard analyses in rat uterine cytosol
T1 sequence (P06211 1-600): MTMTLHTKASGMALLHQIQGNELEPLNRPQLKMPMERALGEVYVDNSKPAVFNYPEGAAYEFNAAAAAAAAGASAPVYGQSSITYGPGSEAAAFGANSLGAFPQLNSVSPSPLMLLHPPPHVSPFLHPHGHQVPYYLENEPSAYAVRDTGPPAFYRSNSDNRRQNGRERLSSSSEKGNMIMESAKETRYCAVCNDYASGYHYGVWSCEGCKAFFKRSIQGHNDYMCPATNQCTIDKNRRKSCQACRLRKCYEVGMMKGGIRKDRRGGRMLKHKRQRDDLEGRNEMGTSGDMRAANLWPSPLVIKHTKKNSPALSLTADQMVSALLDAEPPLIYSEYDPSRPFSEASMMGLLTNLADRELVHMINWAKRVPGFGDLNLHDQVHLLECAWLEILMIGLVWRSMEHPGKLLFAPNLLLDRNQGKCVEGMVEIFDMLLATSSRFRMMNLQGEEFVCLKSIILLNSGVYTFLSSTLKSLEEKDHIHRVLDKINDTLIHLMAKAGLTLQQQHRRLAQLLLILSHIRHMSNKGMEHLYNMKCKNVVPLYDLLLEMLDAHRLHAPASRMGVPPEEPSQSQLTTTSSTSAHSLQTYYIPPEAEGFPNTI

[3] = target: T2, rat uterine cytosol (estrogen receptor) (Rattus norvegicus, UniProt P06211); test: Binding to rat uterine cytosol, dextran-coated charcoal
T2 construct: incubated with cytoplasm from the uteri of rats; from tissue; host or cells: uterine cytosol of ovariectomized rats
T2 sequence (P06211 1-600): T1 sequence (P06211 1-600)
Protocol: Metab. […] The homogenate was centrifuged at 4000 g for 10 minutes and the resulting supernatant for 60 minutes at 150,000 g. […] Samples were incubated for 4 hours at 0° to 2° C. Free steroid was removed by addition of 250 μl of a suspension of 0.5 percent dextran-coated charcoal. The tubes were mixed and then centrifuged at […] for 10 minutes.

[4] = Stability of the radiolabelled compound on storage; type: physicochemical
Protocol: In several experiments the yield of ^125 I-labeled estradiol ranged from 25 to 65 percent of the incubated ^125 I. The purified radioactive iodinated compound was stored at 0° to 4° C. in a benzene-methanol mixture (95:5).

[5] = target: T3, estrogen receptor of human mammary tumors (Homo sapiens, UniProt P03372); test: Estrogen receptor assay in human mammary tumor cytosol; type: binding; details: 1.5 mg/ml protein
T3 construct: 124 and 126
T3 sequence (P03372 1-595): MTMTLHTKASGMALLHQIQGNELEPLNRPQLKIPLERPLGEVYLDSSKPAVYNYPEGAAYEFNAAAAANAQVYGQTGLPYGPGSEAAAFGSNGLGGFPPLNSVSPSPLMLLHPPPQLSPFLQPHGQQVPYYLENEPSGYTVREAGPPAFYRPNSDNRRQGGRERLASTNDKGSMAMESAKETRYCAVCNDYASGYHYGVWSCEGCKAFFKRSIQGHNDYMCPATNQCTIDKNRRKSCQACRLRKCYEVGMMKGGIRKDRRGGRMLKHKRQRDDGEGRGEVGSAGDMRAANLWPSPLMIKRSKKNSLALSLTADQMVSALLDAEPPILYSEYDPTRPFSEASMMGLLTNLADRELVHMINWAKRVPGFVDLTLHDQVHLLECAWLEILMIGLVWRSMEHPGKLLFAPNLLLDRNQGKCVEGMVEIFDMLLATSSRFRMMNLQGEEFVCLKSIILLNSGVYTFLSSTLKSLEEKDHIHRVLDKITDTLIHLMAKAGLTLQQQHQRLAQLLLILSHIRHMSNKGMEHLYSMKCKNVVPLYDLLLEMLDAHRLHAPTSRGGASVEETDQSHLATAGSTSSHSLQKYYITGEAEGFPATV
Protocol: Extrogen receptor human mammary tumors were kept frozen in dry ice in a pulverized form. […] The final concentration of cytosolic protein used in the assay was 1.5 mg/ml.
A pool of two different estrogen receptor-positive mammary tumors was studied.

[6] = test system: antisera against bovine serum albumin complexes with E2-17-hemisuccinate, E2-6-carboxymethyloxime and E2-3-carboxymethyl ether; test: Radioimmunoassay with antisteroid antisera; type: binding, rabbits; details: three antisera, various dilutions
Protocol: Antisteroid antisera were produced in rabbits immunized with steroid-bovineserum albumin conjugates.
Varying amounts of E2 dissolved in methanol were added to test tubes and evaporated to dryness. The residues were dissolved in 100 μl of antiserum that had been diluted in 0.1M phosphate, pH 7.0/0.015M sodium azide/0.15M NaCl/0.1% gelatin (PBS buffer). […] Upon completion of the incubation, 100 μl of 0.5% gelatin in PBS buffer was added, followed by 1 ml of PBS buffer containing 2.5 mg of dextran-coated charcoal. The mixture was agitated in a vortex mixer and, after 10 minutes at 4° C., it was centrifuged at 5000×g for 10 minutes at 4° C. Aliquots (0.9 ml) were assayed for radioactivity.
The data also indicate that very sensitive radioimmunoassays could be developed with all three antisera.

C[C@]12CC[C@@H]3c4ccc(O)cc4CC[C@H]3[C@@H]1C[C@@H]([125I])[C@@H]2O [^125 I-E2, 16α-[^125 I]iodoestra-1,3,5(10)-triene-3,17β-diol]
binding to testosterone-estradiol binding globulin [1]: does not bind
Kd [2]: 0.27 nM
Radioactivity specifically bound, percent of added [3]: 56%
Radioactivity Bound without DES ([3]; 98 μg cytosol protein, 4 hours at 0° to 2° C., added 69,600 (125I) or 63,600 (3H) count/min): 42,600 count/min
Radioactivity specifically bound ([3]; bound without DES minus bound with DES): 38,800 count/min
Radioactivity Bound with DES ([3]; with 7×10^-7 M DES (nonspecific binding)): 3,800 count/min
decomposition on storage ([4]; weeks of storage at 0° to 4° C. in benzene-methanol (95:5)): no signs of decomposition
decomposition on storage ([4]; weeks of storage of 4° C.): little sign of decomposition
receptor concentration found with the ligand ([5]; mammary tumor pool no. 124): 24 fmol/mg of protein
receptor concentration found with the ligand ([5]; mammary tumor pool no. 126): 72 fmol/mg
binding of tracer to antisera [6]: bound to all three antisera
